Assay results as given in BigSolDB 2.1.

O=C(O)CCCCCCC(=O)O
solubility (mole fraction)
Settings | 288.15 K | 293.15 K | 298.15 K | 303.15 K | 308.15 K | 315.15 K | 318.15 K | 323.15 K
in acetic acid | 0.0115 | 0.0145 | 0.0176 | 0.0216 | 0.0264 | 0.0329 | 0.0405 | 0.0501
in acetone | 0.0092 | 0.0127 | 0.0167 | 0.021 | 0.025 | 0.0301 | 0.0356 | 0.0405
in ethanol | 0.0208 | 0.0253 | 0.031 | 0.0375 | 0.0454 | 0.0553 | 0.0683 | 0.0847
in ethyl acetate | 0.00238 | 0.00302 | 0.00389 | 0.00513 | 0.00641 | 0.00819 | 0.00978 | 0.0118

O=C(O)CCCCCC(=O)O
solubility (mole fraction)
Settings | 288.15 K | 293.15 K | 298.15 K | 303.15 K | 308.15 K | 315.15 K | 318.15 K | 323.15 K
in acetic acid | 0.0648 | 0.0794 | 0.0964 | 0.119 | 0.14 | 0.169 | 0.199 | 0.232
in acetone | 0.0546 | 0.0752 | 0.118 | 0.146 | 0.174 | 0.202 | 0.224 | 0.246
in ethanol | 0.0677 | 0.0851 | 0.104 | 0.126 | 0.15 | 0.178 | 0.204 | 0.237
in ethyl acetate | 0.0233 | 0.0321 | 0.0517 | 0.0718 | 0.0802 | 0.0904 | 0.102 | 0.128

O=C(O)CCCC(=O)O
solubility (mole fraction)
Settings | 288.15 K | 293.15 K | 298.15 K | 303.15 K | 308.15 K | 315.15 K | 318.15 K | 323.15 K
in acetic acid | 0.173 | 0.196 | 0.221 | 0.241 | 0.276 | 0.31 | 0.341 | 0.385
in acetone | 0.183 | 0.207 | 0.237 | 0.264 | 0.329 | 0.324 | 0.375 | 0.417
in ethanol | 0.136 | 0.158 | 0.176 | 0.201 | 0.228 | 0.274 | 0.322 | 0.35
in ethyl acetate | 0.0861 | 0.105 | 0.123 | 0.133 | 0.146 | 0.176 | 0.227 | 0.307

O=C(O)CCCCCCCC(=O)O
solubility (mole fraction)
Settings | 288.15 K | 293.15 K | 298.15 K | 303.15 K | 308.15 K | 315.15 K | 318.15 K | 323.15 K
in acetic acid | 0.0333 | 0.04 | 0.0524 | 0.0631 | 0.0761 | 0.0923 | 0.111 | 0.133
in acetone | 0.029 | 0.0331 | 0.04 | 0.0494 | 0.0634 | 0.0806 | 0.103 | 0.143
in ethanol | 0.0534 | 0.0601 | 0.0707 | 0.0851 | 0.102 | 0.124 | 0.15 | 0.185
in ethyl acetate | 0.00911 | 0.0113 | 0.0162 | 0.0232 | 0.0326 | 0.0524 | 0.0663 | 0.0964
